Activity calls are given as the source filed them. The calls are words filed in the database; no cut-off is given here.
Assays:
HCT-116 [1] = assay: Photocytotoxicity against human HCT116 cells assessed as growth inhibition irradiated at 350 nm at 4, 24, 48 hrs post compound addition for 5 mins measured after 72 hrs by MTT assay; format: functional, cell-based; details: HCT-116, light or radiation study
[2] = Dark toxicity against human HCT116 cells after 72 hrs by MTT assay; format: cell-based, HCT-116
HCT-116 [3] = assay: Photocytotoxicity against human HCT116 cells assessed as growth inhibition irradiated at 420 nm at 4, 24, 48 hrs post compound addition for 5 mins measured after 72 hrs by MTT assay; format: functional, cell-based; details: HCT-116, light or radiation study
[4] = Dark toxicity against human H460 cells after 72 hrs by MTT assay; format: cell-based, NCI-H460
NCI-H460 [5] = assay: Photocytotoxicity against human H460 cells assessed as growth inhibition irradiated at 350 nm at 4, 24, 48 hrs post compound addition for 5 mins measured after 72 hrs by MTT assay; format: functional, cell-based; details: NCI-H460, light or radiation study
NCI-H460 [6] = assay: Photocytotoxicity against human H460 cells assessed as growth inhibition irradiated at 420 nm at 4, 24, 48 hrs post compound addition for 5 mins measured after 72 hrs by MTT assay; format: functional, cell-based; details: NCI-H460, light or radiation study
[7] = Dark toxicity against human MCF7 cells after 72 hrs by MTT assay; format: cell-based
MCF7 [8] = assay: Photocytotoxicity against human MCF7 cells assessed as growth inhibition irradiated at 350 nm at 4, 24, 48 hrs post compound addition for 5 mins measured after 72 hrs by MTT assay; format: functional, cell-based; details: MCF7, light or radiation study
MCF7 [9] = assay: Photocytotoxicity against human MCF7 cells assessed as growth inhibition irradiated at 420 nm at 4, 24, 48 hrs post compound addition for 5 mins measured after 72 hrs by MTT assay; format: functional, cell-based; details: MCF7, light or radiation study
[10] = Dark toxicity against human SUM159 cells after 72 hrs by MTT assay; format: cell-based, SUM-159-PT
HMLE [11] = assay: Anticlonogenic activity against HMLE-shEcad cells at 0.5 to 1 uM irradiated at 350 nm at 4 hrs post compound addition for 5 mins for 5 mins measured after 24 hrs by crystal violet staining-based assay; format: functional, cell-based; details: Homo sapiens
SUM-159-PT [12] = assay: Photocytotoxicity against human SUM159 cells assessed as growth inhibition irradiated at 420 nm at 4, 24, 48 hrs post compound addition for 5 mins measured after 72 hrs by MTT assay; format: functional, cell-based; details: light or radiation study
[13] = Dark toxicity against HMLE-shGFP cells after 72 hrs by MTT assay; format: cell-based; details: human
[14] = Photocytotoxicity against HMLE-shGFP cells assessed as growth inhibition irradiated at 350 nm at 4, 24, 48 hrs post compound addition for 5 mins measured after 72 hrs by MTT assay; format: cell-based; details: Homo sapiens, light or radiation study
[15] = Photocytotoxicity against HMLE-shGFP cells assessed as growth inhibition irradiated at 420 nm at 4, 24, 48 hrs post compound addition for 5 mins measured after 72 hrs by MTT assay; format: cell-based; details: Homo sapiens, light or radiation study
[16] = Dark toxicity against HMLE-shEcad cells after 72 hrs by MTT assay; format: cell-based; details: human
[17] = Photocytotoxicity against HMLE-shEcad cells assessed as growth inhibition irradiated at 350 nm at 4, 24, 48 hrs post compound addition for 5 mins measured after 72 hrs by MTT assay; format: functional, cell-based; details: Homo sapiens, light or radiation study
[18] = Photocytotoxicity against HMLE-shEcad cells assessed as growth inhibition irradiated at 420 nm at 4, 24, 48 hrs post compound addition for 5 mins measured after 72 hrs by MTT assay; format: functional, cell-based; details: Homo sapiens, light or radiation study
[19] = Cell cycle arrest in HMLE-shEcad cells at 1 to 5 uM after 24 to 48 hrs in absence of irradiation by propidium iodide staining-based flow cytometric method; details: human
[20] = Cell cycle arrest in HMLE-shGFP cells at 1 to 5 uM after 24 to 48 hrs in absence of irradiation by propidium iodide staining-based flow cytometric method; details: human
HMLE [21] = assay: Cell cycle arrest in HMLE-shEcad cells assessed as delay in S/G2 phase at 5 uM irradiated at 420 nm at 4 hrs post compound addition for 5 mins measured after 24 to 48 hrs by propidium iodide staining-based flow cytometric method; format: functional; details: Homo sapiens
[22] = Cell cycle arrest in HMLE-shGFP cells assessed as delay in S/G2 phase at 5 uM irradiated at 420 nm at 4 hrs post compound addition for 5 mins measured after 24 to 48 hrs by propidium iodide staining-based flow cytometric method; details: human
[23] = Cytotoxicity against HMLE-shGFP cells at 10 uM irradiated at 420 nm at 4 hrs post compound addition for 5 mins measured after 48 hrs by propidium iodide staining-based flow cytometric method; format: cell-based; details: human
HMLE [24] = assay: Cytotoxicity against HMLE-shEcad cells at 10 uM irradiated at 420 nm at 4 hrs post compound addition for 5 mins measured after 48 hrs by propidium iodide staining-based flow cytometric method; format: functional, cell-based; details: Homo sapiens
MCF7 [25] = assay: Cell cycle arrest in human MCF7 cells in presence of irradiation; format: functional, cell-based
SUM-159-PT [26] = assay: Cell cycle arrest in human SUM159 cells in presence of irradiation; format: functional, cell-based
[27] = Drug uptake in cytoplasm of HMLE-shGFP cells at 5 uM irradiated at 420 nm for 5 mins measured after 2 to 3 hrs by confocal microscopic method; format: ADME, subcellular; details: human
[28] = Drug uptake in nucleus of HMLE-shGFP cells at 5 uM irradiated at 420 nm for 5 mins measured after 2 to 3 hrs by confocal microscopic method; format: ADME, subcellular; details: human
[29] = Drug uptake in cytoplasm of HMLE-shGFP cells at 10 uM in absence of irradiation measured after 2 to 3 hrs by confocal microscopic method; format: ADME, subcellular; details: human
[30] = Drug uptake in nucleus of HMLE-shGFP cells at 10 uM in absence of irradiation measured after 2 to 3 hrs by confocal microscopic method; format: ADME, subcellular; details: human
[31] = Drug uptake in plasma membranes of HMLE-shGFP cells at 5 uM irradiated at 420 nm for 5 mins measured after 2 to 3 hrs by confocal microscopic method; format: ADME, cell membranes, Plasma membrane; details: human
[32] = Drug uptake in intracellular membranes of HMLE-shGFP cells at 5 uM irradiated at 420 nm for 5 mins measured after 2 to 3 hrs by confocal microscopic method; format: ADME, cell membranes, Intracellular membrane; details: human
Calf thymus DNA [33] = assay: Binding affinity to calf thymus DNA at 4.2 x 10^-5 M by fluorescence spectrocopic method; format: nucleic-acid assay; details: Bos taurus
Calf thymus DNA [34] = assay: Binding affinity to calf thymus DNA at 4.2 x 10^-5 M in presence of irradiation at 420 nm for 5 mins by fluorescence spectrocopic method; format: nucleic-acid assay; details: Bos taurus
Calf thymus DNA [35] = assay: Binding affinity to calf thymus DNA at 4.2 x 10^-5 M by UV-vis spectrocopic method; format: nucleic-acid assay; details: Bos taurus
[36] = Anticlonogenic activity against HMLE-shGFP cells at 0.5 to 1 uM irradiated at 350 nm at 4 hrs post compound addition for 5 mins measured after 24 hrs by crystal violet staining-based assay; format: ADME, cell-based; details: human
[37] = Cell cycle arrest in HMLE-shEcad cells assessed as delay in G1/S phase at 1 to 10 uM after 24 to 48 hrs in absence of irradiation by propidium iodide staining-based flow cytometric method; details: human
HMLE [38] = assay: Cell cycle arrest in HMLE-shEcad cells assessed as accumulation at S phase at 1 to 10 uM irradiated at 420 nm at 4 hrs post compound addition for 5 mins measured after 24 to 48 hrs by propidium iodide staining-based flow cytometric method; format: functional; details: Homo sapiens
HMLE [39] = assay: Cell cycle arrest in HMLE-shEcad cells assessed as accumulation at G2/M phase at 1 to 10 uM irradiated at 420 nm at 4 hrs post compound addition for 5 mins measured after 24 to 48 hrs by propidium iodide staining-based flow cytometric method; format: functional; details: Homo sapiens
[40] = Cell cycle arrest in HMLE-shGFP cells assessed as accumulation at S phase at 1 to 10 uM irradiated at 420 nm at 4 hrs post compound addition for 5 mins measured after 24 to 48 hrs by propidium iodide staining-based flow cytometric method; details: human
[41] = Cell cycle arrest in HMLE-shGFP cells assessed as accumulation at G2/M phase at 1 to 10 uM irradiated at 420 nm at 4 hrs post compound addition for 5 mins measured after 24 to 48 hrs by propidium iodide staining-based flow cytometric method; details: human
[42] = Induction of reactive oxygen species generation in HMLE-shGFP cells at 10 uM irradiated at 420 nm for 5 mins measured after 2 hrs by H2DCF-DA dye-based FACS analysis relative to non-irradiated cells; format: cell-based; details: human
[43] = Induction of reactive oxygen species generation in HMLE-shEcad cells at 10 uM irradiated at 420 nm for 5 mins measured after 2 hrs by H2DCF-DA dye-based FACS analysis relative to non-irradiated cells; format: functional, Homo sapiens
[44] = Drug uptake in cytoplasm of HMLE-shGFP cells at 5 uM irradiated with UV-light measured after 2 to 3 hrs by confocal microscopic method; format: ADME, subcellular; details: human
[45] = Drug uptake in cytoplasm of HMLE-shEcad cells at 5 uM irradiated with UV-light measured after 2 to 3 hrs by confocal microscopic method; format: ADME, subcellular; details: human
[46] = Drug uptake in nucleus of HMLE-shGFP cells at 5 uM irradiated with UV-light measured after 2 to 3 hrs by confocal microscopic method; format: ADME, subcellular; details: human
[47] = Drug uptake in nucleus of HMLE-shEcad cells at 5 uM irradiated with UV-light measured after 2 to 3 hrs by confocal microscopic method; format: ADME, subcellular; details: human

SMILES | IC50 (HCT-116 [1]) | IC50 at 72 h [2] | IC50 (HCT-116 [3]) | IC50 at 72 h [4] | IC50 (NCI-H460 [5]) | IC50 (NCI-H460 [6]) | IC50 (MCF7 [8]) | IC50 (MCF7 [9]) | IC50 at 72 h [10] | Activity (HMLE [11]) | IC50 (SUM-159-PT [12]) | IC50 at 72 h [13] | IC50 [14] | IC50 [15] | IC50 at 72 h [16] | IC50 [17] | IC50 [18] | Activity [23] | Activity (HMLE [24]) | Activity (MCF7 [25]) | also measured
OCc1cc2cc3ccccc3cc2cc1O | 2000 nM | ≥ 100 µM | 1000 nM | ≥ 100 µM | 15 µM | 10 µM | 2000 nM | 3000 nM | 11 µM | Active | 2000 nM | 11 µM | 700 nM | 1 µM | 17 µM | 2000 nM | 1000 nM | Toxic | Active | inactive | IC50 at 72 h [7]: ≥ 100 µM; Activity [19]: Non-Toxic; Activity [20]: Non-Toxic; Activity (HMLE [21]): Active; Activity [22]: Toxic; Activity (SUM-159-PT [26]): inactive; Drug uptake [27]: Active; Drug uptake [28]: Not Active; Drug uptake [29]: Active; Drug uptake [30]: Not Active; Drug uptake [31]: Active; Drug uptake [32]: Active; Activity (Calf thymus DNA [33]): inactive; Activity (Calf thymus DNA [34]): Active; Activity (Calf thymus DNA [35]): inactive
OCc1ccc2cc3ccccc3cc2c1 | 1000 nM | > 100 µM | 2000 nM | 33 µM | 1 µM | 2 µM | 500 nM | 2000 nM | 13 µM | inactive | 1000 nM | 33 µM | 600 nM | 10 µM | 22 µM | 1000 nM | 2000 nM | Toxic | Active | inactive | Activity [36]: Non-Toxic; Activity [37]: Toxic; Activity (HMLE [38]): Active; Activity (HMLE [39]): Active; Activity [40]: Non-Toxic; Activity [41]: Non-Toxic; Activity (SUM-159-PT [26]): inactive; fold change (FC) [42]: 4; fold change (FC) [43]: 7; Drug uptake [44]: Active; Drug uptake [45]: Active; Drug uptake [46]: Not Active; Drug uptake [47]: Not Active

From ChEMBL document CHEMBL4138121, “Selective photocytotoxicity of anthrols on cancer stem-like cells: The effect of quinone methides or reactive oxygen species” (Eur J Med Chem, 2017)
